# US20140221301A1, “COMBINATION TREATMENT FOR CANCER” (priority 2011, published 2014)
# Columns and labels:
# TEX cells = assay: ROS generation (DCF-DA, DHE) in TEX cells; type: cell-based, human; conditions: time-points up to 24 hours
# Experimental: (§1) FIG. 4. […] (A) Cells from TEX, OCI-AML2 and two primary AML patients were treated with increasing concentrations (2.5 μM and 5 μM) of tigecycline for 36 and 48 hours of tigecycline. Total proteins were extracted and analyzed by western blotting for Cox-1, Cox-2, Cox-4, grp78, XIAP, actin and tubulin. (B) TEX and AML patient cells were treated with increasing concentrations (2.5 μM and 5 μM) of tigecycline. Cox-1, Cox-2, and Cox-4 mRNA expression relative 18S was determined by quantitative RT-PCR. Data is shown as mean±SD. (C) TEX cells were treated with increasing concentrations of tigecycline and chloramphenicol (CAP) for 72 hours. Complex I, II and IV enzyme activity relative to citrate synthase activity was determined as described in materials and methods. (D) Cells from TEX, primary AML patients, and normal donors were treated with increasing concentrations of tigecycline. Mitochondrial membrane potential (ΔΨ) was determined by staining cells with JC-1 dye, and flow cytometry analysis (Red/Green ratio). Reactive oxygen species generation (ROS) was determined by staining with h2-DCFDA and Dihydroethidium (DHE).
# A byproduct of the mitochondrial enzyme activities of the electron transport chain is the generation of reactive oxygen species (ROS). […] Therefore, the role of tigecycline on ROS generation in leukemia cells by analyzing hydrogen peroxide ions (H2O2) using a dichlorofluorescein dye (DCF-DA), and superoxide anions using dihydroethidium (DHE) was examined.
# [1] = test system: primary normal hematopoietic cells (PBSC); assay: Cell viability by Annexin V staining, primary normal hematopoietic cells; type: cell-based, human; conditions: n=5, 48 hours
# Experimental: FIG. 2. Tigecycline induces cell death and inhibits clonogenic growth in primary AML cells preferential over normal hematopoietic cells. Mononuclear cells from peripheral blood of leukemia patients (blast count>80%) and normal G-CSF expanded donors was treated with increasing concentrations of tigecycline for 48 hours. Cell viability was measured by Annexin-PI flow cytometry staining. Cell viability is expressed as a mean percentage plus or minus SD (n=3) relative to DMSO-treated cells. Mononuclear cells from primary AML patient samples (A, B) and normal peripheral blood cells (C) were plated in methylcelluose with 5 μM of Tigecycline. (D) Colony forming units were counted at 7 days (AML) and 14 days (Normal) post plating. […]
# Cell growth and viability was assessed by the MTS assay (Promega, Madison, Wis.) according to the manufacturer's instructions. Apoptosis and cell death was measured by Annexin V-fluroscein isothiocyanate (FITC; Biovision Research Products, Mountain View, Calif.), propidium iodide staining and flow cytometry according to the manufacturer's instructions and as previously described^30.
# Given the cytotoxicity of tigecycline towards leukemia cell lines, the ability of tigecycline to induce cell death in primary acute myeloid leukemia (AML) patient samples and normal hematopoietic cells was compared and evaluated. […]
# Cox-1, Cox-2, Cox-4 mRNA = assay: Quantitative RT-PCR of Cox mRNA; type: cell-based, human; conditions: TEX and primary AML cells, 2.5 μM and 5 μM
# Experimental: as §1
# [2] = test system: OCI-AML2 human leukemia cells; type: in vivo, SCID mice
# Experimental: FIG. 3. Tigecycline has anti-leukemia activity in vivo. (A, B) Human leukemia cells (OCI-AML2) were injected subcutaneously into the flank of SCID mice. Seven days after injection, once tumors were palpable, mice were treated with tigecycline (50 mg/kg or 100 mg/kg twice daily by i.p. injection) or vehicle control (n=10 per group). Fourteen days after injection of cells, mice were sacrificed, tumors excised and the volume and mass of the tumors were measured. The tumor mass and the mean volume+SD are shown. Differences in tumor volume and mass were analyzed by an unpaired t-test: *p<0.001. (C) Tumours from two control mice, and three tigecycline-treated mice were excised after 5 days of treatment and total proteins were extracted and analyzed by western blotting for Cox-1, Cox-2, Cox-4, and tubulin. (D) Primary cells from three AML patients were injected intra-femorally into the right femur of female sub-lethally irradiated NOD/SCID mice. Three weeks after injection mice were treated with tigecycline (100 mg/kg by i.p. injection daily) or vehicle control (n=10 per group) for three weeks. Following treatment, human leukemia cell engraftment in the injected right femur was measured by FACS analysis for human CD45^+CD19^−CD33^+ cells. Data represent mean±SD of engrafted human cells. Cells from one patient experiment were used to assess secondary engraftment in a second generation of NOD/SCID mice. Equal numbers of viable leukemia cells from bone marrow of control and tigecycline treated mice were injected into irradiated NOD/SCID mice, which were not treated with tigecycline. Six weeks later, human leukemia cell engraftment in the injected right femur was measured by FACS analysis for human CD45^+CD19^−CD33^+cells. (*p<0.005, Student's t-test).
# OCI-AML2 human leukemia cells (1×10^6) were injected subcutaneously into the flanks of SCID mice (Ontario Cancer Institute, Toronto, ON). Seven days after injection, once tumours were palpable, mice were treated with tigecycline twice daily (50 mg/kg or 100 mg/kg by i.p. injection) or vehicle control (n=10 per group) for 14 days. Tumor volume (tumor length x width^2×0.5236) was measured three times a week using calipers. Twenty-one days after injection of cells, mice were sacrificed, tumors excised and the volume and mass of the tumors were measured.
# Given the effects of tigecycline as a potential anti-leukemia agent, tigecycline in mouse models of leukemia was evaluated. To evaluate the anti-tumor efficacy of tigecycline in vivo, human OCI-AML2 leukemia cells were injected into the flank of SCID mice. […] Tumor volume and mass were measured over time (FIG. 3A, B). […]
# [3] = 50 mg/kg or 100 mg/kg twice daily i.p., 14 days
compound,measurement,setting,value
CN(C)c1cc(NC(=O)CNC(C)(C)C)c(O)c2c1C[C@H]1C[C@H]3[C@H](N(C)C)C(O)=C(C(N)=O)C(=O)[C@@]3(O)C(O)=C1C2=O [tigecycline],ROS generation,TEX cells,no observed increase
same,LD50,[1],> 10 µM
same,"mRNA expression of Cox-1, Cox-2 over Cox-4","Cox-1, Cox-2, Cox-4 mRNA",preferential increased mRNA expression
same,expression of Cox-1 and Cox-2 relative to Cox-4 in tumours,"[2]; 50 mg/kg bid for 5 days, western blotting",preferential decreased expression
same,decrease of tumor mass compared to vehicle control,[2]; [3],up to 70%
same,decrease of tumor volume compared to vehicle control,[2]; [3],up to 70%
same,toxicity in treated mice,"[2]; mouse, in vivo",No evidence of toxicity
